In publication PMC11889516 (Microbial Biotechnology, 2025) one finds Kd and Km data, which are given here for three molecules.

The target in one series is T1, CYP116B234 (Rhodococcus globerulus, UniProt A0ABU4C0V8).
T1 construct: gene R3Q16_26300; full-length, N-terminal polyhistidine tag (GenBank MCE4265947.1)
T1 sequence (A0ABU4C0V8 1-767): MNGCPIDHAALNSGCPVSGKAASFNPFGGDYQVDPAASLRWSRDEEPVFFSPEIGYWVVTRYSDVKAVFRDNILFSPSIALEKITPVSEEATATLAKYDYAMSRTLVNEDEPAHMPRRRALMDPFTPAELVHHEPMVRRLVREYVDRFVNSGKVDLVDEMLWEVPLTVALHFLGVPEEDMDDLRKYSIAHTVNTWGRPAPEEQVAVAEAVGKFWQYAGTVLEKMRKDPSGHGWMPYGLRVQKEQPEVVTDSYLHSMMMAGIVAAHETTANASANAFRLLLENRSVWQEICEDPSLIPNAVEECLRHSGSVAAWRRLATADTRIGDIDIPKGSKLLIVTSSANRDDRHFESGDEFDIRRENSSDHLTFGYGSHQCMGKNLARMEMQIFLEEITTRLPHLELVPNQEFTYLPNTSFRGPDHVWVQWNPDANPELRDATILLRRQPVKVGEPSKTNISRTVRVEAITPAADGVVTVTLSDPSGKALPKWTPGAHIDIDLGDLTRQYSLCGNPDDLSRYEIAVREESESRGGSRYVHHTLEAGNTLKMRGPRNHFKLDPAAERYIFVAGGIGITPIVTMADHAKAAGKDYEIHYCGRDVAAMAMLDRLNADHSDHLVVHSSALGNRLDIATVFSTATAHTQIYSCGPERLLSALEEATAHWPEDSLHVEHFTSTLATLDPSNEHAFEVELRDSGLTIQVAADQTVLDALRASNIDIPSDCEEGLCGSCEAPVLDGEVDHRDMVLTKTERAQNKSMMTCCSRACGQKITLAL
As to the kind of experiment: UV-visible difference spectroscopy titration (heme spin-state shift); also NADPH consumption and turnover with purified enzyme. The class given is binding.

Substrate in series [1]: NC(=O)C1=CN([C@@H]2O[C@H](COP(=O)(O)OP(=O)(O)OC[C@H]3O[C@@H](n4cnc5c(N)ncnc54)[C@H](O)[C@@H]3O)[C@@H](O)[C@H]2O)C=CC1
As to the kind of experiment: purified protein. The note with it: FMN, [2Fe-2S], heme reductase domain; varied: cofactor.

Substrate in series [2]: NC(=O)C1=CN([C@@H]2O[C@H](COP(=O)(O)OP(=O)(O)OC[C@H]3O[C@@H](n4cnc5c(N)ncnc54)[C@H](OP(=O)(O)O)[C@@H]3O)[C@@H](O)[C@H]2O)C=CC1
As to the kind of experiment: purified protein. The series is classed as biochemical, Rhodococcus globerulus. The note with it: FMN, [2Fe-2S], heme reductase domain; varied: cofactor.

The Kd is a measure of binding affinity in units of concentration. Turning to `O=C(O)Cc1ccccc1O` [2-HPA, 2‐hydroxyphenylacetic acid], the Kd on CYP116B234 worked out at 700 ± 100 nM. With `O=C(O)CCc1ccccc1O` [HPPA, 3‐(2‐hydroxyphenyl)propionic acid], the Kd on CYP116B234 is 1900 ± 100 nM.

B1: CYP116B234 (Rhodococcus globerulus) (protein)
chain: MNGCPIDHAALNSGCPVSGKAASFNPFGGDYQVDPAASLRWSRDEEPVFFSPEIGYWVVTRYSDVKAVFRDNILFSPSIALEKITPVSEEATATLAKYDYAMSRTLVNEDEPAHMPRRRALMDPFTPAELVHHEPMVRRLVREYVDRFVNSGKVDLVDEMLWEVPLTVALHFLGVPEEDMDDLRKYSIAHTVNTWGRPAPEEQVAVAEAVGKFWQYAGTVLEKMRKDPSGHGWMPYGLRVQKEQPEVVTDSYLHSMMMAGIVAAHETTANASANAFRLLLENRSVWQEICEDPSLIPNAVEECLRHSGSVAAWRRLATADTRIGDIDIPKGSKLLIVTSSANRDDRHFESGDEFDIRRENSSDHLTFGYGSHQCMGKNLARMEMQIFLEEITTRLPHLELVPNQEFTYLPNTSFRGPDHVWVQWNPDANPELRDATILLRRQPVKVGEPSKTNISRTVRVEAITPAADGVVTVTLSDPSGKALPKWTPGAHIDIDLGDLTRQYSLCGNPDDLSRYEIAVREESESRGGSRYVHHTLEAGNTLKMRGPRNHFKLDPAAERYIFVAGGIGITPIVTMADHAKAAGKDYEIHYCGRDVAAMAMLDRLNADHSDHLVVHSSALGNRLDIATVFSTATAHTQIYSCGPERLLSALEEATAHWPEDSLHVEHFTSTLATLDPSNEHAFEVELRDSGLTIQVAADQTVLDALRASNIDIPSDCEEGLCGSCEAPVLDGEVDHRDMVLTKTERAQNKSMMTCCSRACGQKITLAL
notes: full-length, N-terminal polyhistidine tag (GenBank MCE4265947.1)
For orientation: Km means the concentration of substrate that gives half-maximal velocity. As for B1, the values for the Km in “purified protein [1]” and in “purified protein [2]” were 240 ± 20 µM and 0.5 ± 0.4 µM, respectively.
